The Ki is the dissociation constant of the complex between target and ligand, obtained from inhibition or displacement. Usually EC50 stands for the concentration needed to bring the measured effect to its halfway point. As usually defined, the Emax is the maximal effect, on the per cent scale that the assay sets.

Molecules are shown by their SMILES. Like-named read-outs stand apart in the source and are kept apart here. Where only a bound is given, the exact number is not on record here.

The target in test [1] is T1, μ-opioid receptor (Homo sapiens, UniProt P35372). Briefly: μ-opioid receptor radioligand dose-displacement binding assay ([3H]-diprenorphine). Further details: expressed in transfected cells; host or cells: HEK-293 or CHO. On the procedure: Radioligand dose-displacement binding assays for μ-opioid receptors used 0.3 nM [^3H]-diprenorphine (Perkin Elmer, Shelton, Conn.), with […] membrane protein/well in a final volume of 500 μl binding buffer (10 mM MgCl2, 1 mM EDTA, 5% DMSO, 50 mM HEPES, pH 7.4). Reactions were carried out in the absence or presence of increasing concentrations of unlabeled naloxone. All reactions were conducted in 96-deep well polypropylene plates for 2 hr at room temperature. […] The data were analyzed using the one-site competition curve fitting functions in GraphPad PRISM™ v. 3.0 or higher (San Diego, Calif.), or an in-house function for one-site competition curve-fitting.

Test [2] concerns the target T1, μ-opioid receptor. Briefly: μ-opioid receptor [35S]GTPγS functional assay, HEK-293 or CHO cells. The settings on record: for Emax: read-out: GTPγS μ Emax.
Test [3] deals with T2, κ opioid receptor (Homo sapiens, UniProt P41145). Briefly: κ-opioid receptor [35S]GTPγS functional assay, HEK-293 or CHO cells. In kind it is biochemical. The settings on record: for Emax: relative to U69,593. More on the design: expressed in transfected cells; host or cells: U-2 OS (in-house membranes). On the procedure:
Membranes from recombinant HEK-293 cells, CHO or U-2 OS cells expressing the recombinant human κ opioid receptor (κ) were prepared by lysing cells in ice cold hypotonic buffer (2.5 mM MgCl2, 50 mM HEPES, pH 7.4) (10 mL/10 cm dish) followed by homogenization with a tissue grinder/Teflon pestle. Membranes from a cell line naturally expressing kappa opioid receptors can also be used. Membranes were collected by centrifugation at 30,000×g for 15 min at 4° C. and pellets were resuspended in hypotonic buffer to a final concentration of 1-3 mg/mL. Protein concentrations were determined using the BioRad protein assay reagent with bovine serum albumen as standard. Aliquots of κ receptor membranes were stored at −80° C.
Plates were incubated for 30 min at a temperature of about 25° C. with shaking.
In general terms: GTPγS is a poorly hydrolysed GTP analogue; its binding reports G protein activation.

The target in test [4] is T2, κ opioid receptor. Briefly: biochemical. The test is classed as binding. More on the design: expressed in transfected cells; host or cells: HEK 293 (in-house membrane prep). The settings on record: HEK-293 or CHO cells.
For test [5], the target named is T3, human opioid receptor-like receptor (ORL-1) (Homo sapiens, UniProt P41146).
T3 construct: host or cells: HEK-293
Briefly: ORL-1 receptor radioligand binding assay ([3H]-nociceptin). The settings on record: HEK-293 or CHO cells; bound in μM. On the procedure: Membranes from recombinant HEK-293 cells expressing the human opioid receptor-like receptor (ORL-1) (Perkin Elmer, Shelton, Conn.) are prepared by lysing cells in ice-cold hypotonic buffer (2.5 mM MgCl2, 50 mM HEPES, pH 7.4) (10 ml/10 cm dish) followed by homogenization with a tissue grinder/Teflon pestle. Membranes are collected by centrifugation at 30,000×g for 15 min at 4° C. and pellets resuspended in hypotonic buffer to a final concentration of 1-3 mg/ml. Protein concentrations are determined using the BioRad protein assay reagent with bovine serum albumen as standard. Aliquots of the ORL-1 receptor membranes are stored at −80° C.
Radioligand binding assays (screening and dose-displacement) use 0.1 nM [^3H]-nociceptin (Perkin Elmer, Shelton, Conn.; 87.7 Ci/mmole) with 12 μg membrane protein in a final volume of 500 μl binding buffer (10 mM MgCl2, 1 mM EDTA, 5% DMSO, 50 mM HEPES, pH 7.4). Non-specific binding is determined in the presence of […] unlabeled nociceptin (American Peptide Company). All reactions are performed in 96-deep well polypropylene plates for 1 h at room temperature. […] The data from screening and dose-displacement experiments are analyzed using Microsoft Excel and the curve fitting functions in GraphPad PRISM™, v. 3.0 or higher, respectively, or an in-house function for one-site competition curve-fitting.

Test [6] deals with T1, μ-opioid receptor. Briefly: μ-opioid receptor [35S]GTPγS functional assay, U-2 OS cells. In kind it is biochemical. Further details: expressed in transfected cells; host or cells: U-2 OS. The settings on record: U-2 OS cells; for EC50: read-out: GTPγS μ EC50; for Emax: relative to DAMGO, read-out: GTPγS μ Emax.
In test [7] the target is T2, κ opioid receptor. Briefly: κ-opioid receptor [35S]GTPγS functional assay, U-2 OS cells. The settings on record: U-2 OS cells; for EC50: bound in μM, read-out: GTPγS κ EC50; for Emax: relative to U69,593, read-out: GTPγS κ Emax. The test is classed as biochemical. More on the design: expressed in transfected cells; host or cells: U-2 OS (in-house membranes).
Description: Membranes from recombinant HEK-293 cells, CHO or U-2 OS cells expressing the recombinant human κ opioid receptor (κ) were prepared by lysing cells in ice cold hypotonic buffer (2.5 mM MgCl2, 50 mM HEPES, pH 7.4) (10 mL/10 cm dish) followed by homogenization with a tissue grinder/Teflon pestle. […] Membranes were collected by centrifugation at 30,000×g for 15 min at 4° C. and pellets were resuspended in hypotonic buffer to a final concentration of 1-3 mg/mL. Protein concentrations were determined using the BioRad protein assay reagent with bovine serum albumen as standard. Aliquots of κ receptor membranes were stored at −80° C.
Setting [8] is: HEK-293 or CHO cells, read-out: Ki Opioid Receptor μ.
Setting [9] is: HEK-293 or CHO cells, read-out: GTPγS κ EC50.
Where [10] appears, read: HEK-293 or CHO cells, bound in μM, read-out: GTPγS κ EC50.

T1 sequence (P35372 whole entry, species assumed): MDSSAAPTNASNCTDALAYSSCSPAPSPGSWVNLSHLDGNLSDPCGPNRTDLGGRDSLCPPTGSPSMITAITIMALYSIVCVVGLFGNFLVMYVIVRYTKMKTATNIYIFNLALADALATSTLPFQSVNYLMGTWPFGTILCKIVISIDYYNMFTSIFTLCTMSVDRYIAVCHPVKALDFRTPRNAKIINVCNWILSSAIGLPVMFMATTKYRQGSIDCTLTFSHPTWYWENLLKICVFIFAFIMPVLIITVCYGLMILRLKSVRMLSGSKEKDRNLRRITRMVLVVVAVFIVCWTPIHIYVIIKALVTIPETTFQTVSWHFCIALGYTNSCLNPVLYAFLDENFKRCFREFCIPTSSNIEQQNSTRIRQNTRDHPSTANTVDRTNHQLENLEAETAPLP
T2 sequence (P41145 whole entry): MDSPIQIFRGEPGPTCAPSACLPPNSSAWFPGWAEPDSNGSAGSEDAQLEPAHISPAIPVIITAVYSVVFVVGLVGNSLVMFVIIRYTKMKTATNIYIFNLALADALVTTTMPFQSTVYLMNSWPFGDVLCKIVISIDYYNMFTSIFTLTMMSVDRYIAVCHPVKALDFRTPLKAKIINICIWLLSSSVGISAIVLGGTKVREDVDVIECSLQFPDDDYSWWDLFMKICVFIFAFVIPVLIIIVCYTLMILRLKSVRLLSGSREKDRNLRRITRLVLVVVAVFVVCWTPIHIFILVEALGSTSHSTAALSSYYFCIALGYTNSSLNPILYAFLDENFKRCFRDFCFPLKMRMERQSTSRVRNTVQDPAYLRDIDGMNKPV
T3 sequence (P41146 whole entry): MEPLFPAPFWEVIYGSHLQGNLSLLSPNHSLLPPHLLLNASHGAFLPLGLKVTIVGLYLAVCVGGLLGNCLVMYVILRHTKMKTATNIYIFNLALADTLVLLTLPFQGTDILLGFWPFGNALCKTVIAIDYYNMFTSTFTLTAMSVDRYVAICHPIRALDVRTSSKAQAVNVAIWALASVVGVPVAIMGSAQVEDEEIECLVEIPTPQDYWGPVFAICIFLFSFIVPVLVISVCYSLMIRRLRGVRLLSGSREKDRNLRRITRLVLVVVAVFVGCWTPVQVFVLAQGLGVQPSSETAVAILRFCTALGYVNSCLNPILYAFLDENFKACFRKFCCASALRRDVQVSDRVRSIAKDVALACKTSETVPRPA

Regarding `COc1ccc2c(c1)[C@@]1(C)CCN(CC3CC3)C(C2)C1N(C)C(=O)/C=C/c1ccoc1` (stereo in doubt) [Compound 57, (E)-N-((2R,6R,11S)-3-(cyclopropylmethyl)-8-methoxy-6-methyl-1,2,3,4,5,6-hexahydro-2,6-methanobenzo[d]azocin-11-yl)-3-(furan-3-yl)-N-methylacrylamide], the inhibition constant Ki on μ-opioid receptor [1] (setting [8]) is 236 ± 70.2 nM; on κ opioid receptor [4] it was 0.00461 ± 0.00143 µM. Moreover, the values for the half-maximal effective concentration (EC50) on μ-opioid receptor [2] and on κ opioid receptor [3] (setting [9]) were 315 ± 47.9 nM and 0.351 ± 0.115 µM, respectively. The Emax came out at 112 ± 7.22% at μ-opioid receptor [2] and 85.7 ± 3.93% at κ opioid receptor [3] (HEK-293 or CHO cells).
On to `COc1ccc2c(c1)[C@@]1(C)CCN(C)C(C2)[C@H]1OCC(N)=O` [Compound 4, 2-(((6R,11S)-8-methoxy-3,6-dimethyl-1,2,3,4,5,6-hexahydro-2,6-methanobenzo[d]azocin-11-yl)oxy)acetamide], for which the values for the inhibitory constant (Ki) on μ-opioid receptor [1] and on κ opioid receptor [4] (bound in μM) were greater than 20000 nM and greater than 20 µM, respectively.
Turning to `CCN(CC)CCON=C1C2Cc3ccc(OC)cc3C1(C)CCN2C` (stereo not shown) [Compound 5, 8-methoxy-3,6-dimethyl-1,2,3,4,5,6-hexahydro-2,6-methanobenzo[d]azocin-11-one O-(2-(diethylamino)ethyl)oxime], the figures for the Ki on μ-opioid receptor [1] and at κ opioid receptor [4] were greater than 20000 nM and 10.7 µM, respectively.
Taken in the same sequence, the figures for `CCC=C1C2Cc3ccc(OC)cc3C1(C)CCN2C` (stereo not shown) [Compound 6, 8-methoxy-3,6-dimethyl-11-propylidene-1,2,3,4,5,6-hexahydro-2,6-methanobenzo[d]azocine] were greater than 20000 nM and 3.16 ± 1.24 µM.
`COc1ccc2c(c1)[C@@]1(C)CCN(C)C(C2)C1N1CCCC(C(=O)O)C1` (stereo partly drawn) [Compound 74, 1-((6R)-8-methoxy-3,6-dimethyl-1,2,3,4,5,6-hexahydro-2,6-methanobenzo[d]azocin-11-yl)piperidine-3-carboxylic acid]: the Ki at μ-opioid receptor [1] is 230 ± 43.8 nM; on κ opioid receptor [4], 0.0241 ± 0.00593 µM. In addition, the EC50 turned out to be 639 ± 147 nM on μ-opioid receptor [2] and 0.637 ± 0.0651 µM at κ opioid receptor [3]. The Emax is 31.7 ± 0.67% at μ-opioid receptor [2] and 53 ± 2.31% at κ opioid receptor [3] (HEK-293 or CHO cells).
On to `CN(C(=O)/C=C/c1ccoc1)[C@H]1C2Cc3ccc(O)cc3[C@@]1(C)CCN2CC1CC1` [Compound 83, (E)-N-((6R,11R)-3-(cyclopropylmethyl)-8-hydroxy-6-methyl-1,2,3,4,5,6-hexahydro-2,6-methanobenzo[d]azocin-11-yl)-3-(furan-3-yl)-N-methylacrylamide], for which the Ki was determined as 1.78 ± 0.38 nM at μ-opioid receptor [1] (setting [8]) and 0.00015 ± 2e-05 µM at κ opioid receptor [4]. Further, the EC50 at μ-opioid receptor [2] came out at 10.6 ± 1.18 nM; on κ opioid receptor [3] (setting [9]), 0.00267 ± 0.00084 µM. Also, the Emax on μ-opioid receptor [2] was 92.7 ± 5.21%; on κ opioid receptor [3] (HEK-293 or CHO cells), 77.7 ± 1.76%.
`CN1CC[C@@]2(C)c3cc(O)ccc3C[C@@H]1[C@@H]2NCCc1ccc(S(N)(=O)=O)cc1` [Compound 92, 4-(2-(((2R,6S,11R)-8-hydroxy-3,6-dimethyl-1,2,3,4,5,6-hexahydro-2,6-methanobenzo[d]azocin-11-yl)amino)ethyl)benzenesulfonamide]: the values for the inhibitory constant (Ki) (in test [5]; at μ-opioid receptor [1] (setting [8]); on κ opioid receptor [4]) were greater than 20 µM, 54.5 ± 17.3 nM and 0.163 ± 0.00383 µM, respectively. Moreover, the EC50 at μ-opioid receptor [6] was 149 ± 25.5 nM; on μ-opioid receptor [2] it was 68.9 ± 16 nM; at κ opioid receptor [3] (setting [10]) it was greater than 20 µM; on κ opioid receptor [7] it was greater than 20 µM. The Emax on μ-opioid receptor [6] worked out at 97.3 ± 3.53%; on μ-opioid receptor [2], 100 ± 3.12%; at κ opioid receptor [3] (HEK-293 or CHO cells), 3.5 ± 1.71%; at κ opioid receptor [7], 1%.
Consider `CN1CC[C@]2(C)c3cc(O)ccc3C[C@H]1[C@H]2NCCc1ccc(S(N)(=O)=O)cc1` [Compound 93, 4-(2-(((2S,6R,11S)-8-hydroxy-3,6-dimethyl-1,2,3,4,5,6-hexahydro-2,6-methanobenzo[d]azocin-11-yl)amino)ethyl)benzenesulfonamide], for which the Ki in test [5] was greater than 20 µM; on μ-opioid receptor [1] (setting [8]), 3700 ± 91.4 nM; at κ opioid receptor [4], 5.35 ± 0.541 µM. Further, the concentration giving a half-maximal response (EC50) was 4560 ± 743 nM at μ-opioid receptor [6], 3140 ± 790 nM on μ-opioid receptor [2] and greater than 20 µM at κ opioid receptor [7]. Also, the figures for the Emax at μ-opioid receptor [6], on μ-opioid receptor [2] and at κ opioid receptor [7] were 80.7 ± 4.48%, 92 ± 4.3% and 2%, respectively.
For the compound `CN1CC[C@@]2(C)c3cc(O)ccc3C[C@@H]1[C@H]2NCCc1ccc(S(N)(=O)=O)cc1` [Compound 94, 4-(2-(((2R,6S,11S)-8-hydroxy-3,6-dimethyl-1,2,3,4,5,6-hexahydro-2,6-methanobenzo[d]azocin-11-yl)amino)ethyl)benzenesulfonamide], the Ki in test [5] was greater than 20 µM; on μ-opioid receptor [1] (setting [8]) it was 36.8 ± 12.1 nM; at κ opioid receptor [4] it was 0.0168 ± 0.00251 µM. Moreover, the EC50 is 27.4 ± 4.2 nM at μ-opioid receptor [6], 40.8 ± 2.76 nM at μ-opioid receptor [2], greater than 20 µM at κ opioid receptor [3] (setting [10]) and greater than 20 µM at κ opioid receptor [7]. For the same compound, the Emax on μ-opioid receptor [6] stood at 85.3 ± 5.93%; on μ-opioid receptor [2], 85.3 ± 4.98%; on κ opioid receptor [3] (HEK-293 or CHO cells) it was 4.6 ± 0.4%; at κ opioid receptor [7], 0%.
Turning to `CN1CC[C@]2(C)c3cc(O)ccc3C[C@H]1[C@@H]2NCCc1ccc(S(N)(=O)=O)cc1` [Compound 95, 4-(2-(((2S,6R,11R)-8-hydroxy-3,6-dimethyl-1,2,3,4,5,6-hexahydro-2,6-methanobenzo[d]azocin-11-yl)amino)ethyl)benzenesulfonamide], the inhibition constant (Ki) in test [5] is greater than 20 µM; on μ-opioid receptor [1] (setting [8]), 1760 ± 324 nM; at κ opioid receptor [4] it was 4.6 ± 0.764 µM. In addition, the half-maximal effective concentration (EC50) at μ-opioid receptor [6] is 1440 ± 44.7 nM; at μ-opioid receptor [2], 2120 ± 204 nM; at κ opioid receptor [7], greater than 20 µM. In addition, the Emax at μ-opioid receptor [6] was 79.7 ± 8.41%; on μ-opioid receptor [2], 78 ± 3.06%; on κ opioid receptor [7] it was -1%.

Values taken from patent publication US10138207B2, “Benzomorphan analogs and the use thereof” (priority 2012, dated 2018).
